Results: ChEMBL document CHEMBL1201862, “PubChem BioAssay data set” (2004)
Activity calls are given as the source filed them.

How the values were obtained:
[1] = target: T1, Sentrin-specific protease 8 (Homo sapiens, UniProt Q96LD8); assay type: functional;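 further: luminescence read-out of SENP8 inhibition, dose-response confirmation following an ultra-high-throughput screen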
T1 sequence (Q96LD8 whole entry): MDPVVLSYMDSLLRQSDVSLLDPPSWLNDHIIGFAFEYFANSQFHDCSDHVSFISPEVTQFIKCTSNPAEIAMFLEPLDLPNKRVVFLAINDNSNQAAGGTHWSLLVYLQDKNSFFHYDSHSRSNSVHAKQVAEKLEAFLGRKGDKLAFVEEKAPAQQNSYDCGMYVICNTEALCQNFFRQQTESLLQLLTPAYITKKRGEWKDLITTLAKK

[2] = target: T2, Sentrin-specific protease 7 (Homo sapiens, UniProt Q9BQF6); assay type: functional;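 further: Luminescence-based dose-response confirmation of ultra-high-throughput screening hits, measuring inhibition of SENP7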
T2 sequence (Q9BQF6 whole entry): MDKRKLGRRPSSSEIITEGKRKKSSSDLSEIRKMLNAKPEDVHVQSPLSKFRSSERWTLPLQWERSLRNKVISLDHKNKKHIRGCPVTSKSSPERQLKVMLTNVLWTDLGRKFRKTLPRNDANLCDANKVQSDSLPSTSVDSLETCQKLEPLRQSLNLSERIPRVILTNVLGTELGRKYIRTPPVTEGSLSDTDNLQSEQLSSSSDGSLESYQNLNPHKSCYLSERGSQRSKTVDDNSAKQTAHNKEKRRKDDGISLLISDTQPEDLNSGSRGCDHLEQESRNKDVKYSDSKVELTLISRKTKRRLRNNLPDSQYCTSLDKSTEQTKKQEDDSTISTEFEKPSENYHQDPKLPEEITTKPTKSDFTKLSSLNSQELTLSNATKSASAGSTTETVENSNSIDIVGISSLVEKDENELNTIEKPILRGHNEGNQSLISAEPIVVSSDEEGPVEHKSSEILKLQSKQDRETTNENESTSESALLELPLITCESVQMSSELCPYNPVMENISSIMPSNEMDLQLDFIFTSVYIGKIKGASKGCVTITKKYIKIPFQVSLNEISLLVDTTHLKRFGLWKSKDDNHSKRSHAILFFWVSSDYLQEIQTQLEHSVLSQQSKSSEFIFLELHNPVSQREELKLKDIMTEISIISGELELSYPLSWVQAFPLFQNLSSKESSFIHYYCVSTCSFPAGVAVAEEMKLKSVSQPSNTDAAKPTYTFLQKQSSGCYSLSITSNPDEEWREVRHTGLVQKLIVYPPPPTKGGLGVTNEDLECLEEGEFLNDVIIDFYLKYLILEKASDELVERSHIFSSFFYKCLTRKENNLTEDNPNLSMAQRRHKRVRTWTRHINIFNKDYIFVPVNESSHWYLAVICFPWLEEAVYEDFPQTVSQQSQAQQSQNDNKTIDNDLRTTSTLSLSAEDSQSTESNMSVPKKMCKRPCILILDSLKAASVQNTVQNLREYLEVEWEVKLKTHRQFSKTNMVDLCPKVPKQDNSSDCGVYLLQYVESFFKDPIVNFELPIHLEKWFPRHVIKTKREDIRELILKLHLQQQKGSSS

Caspase-3 = target: T3, Caspase-3 (Homo sapiens, UniProt P42574); assay type: functional;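 further: Dose-response selectivity test against caspase-3 for candidate inhibitors of sentrin-specific proteases (SENPs)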
T3 sequence (P42574 whole entry): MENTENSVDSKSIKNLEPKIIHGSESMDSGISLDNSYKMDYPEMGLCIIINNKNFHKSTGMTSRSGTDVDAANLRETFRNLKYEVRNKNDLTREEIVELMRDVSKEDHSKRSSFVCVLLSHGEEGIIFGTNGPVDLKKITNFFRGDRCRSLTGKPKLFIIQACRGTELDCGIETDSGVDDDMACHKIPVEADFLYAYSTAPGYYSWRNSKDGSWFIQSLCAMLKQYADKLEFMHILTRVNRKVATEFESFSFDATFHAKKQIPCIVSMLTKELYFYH

[3] = target: T4, Sentrin-specific protease 6 (Homo sapiens, UniProt Q9GZR1); assay type: functional;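 further: Luminescence-based dose-response confirmatory assay of SENP6 inhibition, following up an ultra-high-throughput screen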
T4 sequence (Q9GZR1 whole entry): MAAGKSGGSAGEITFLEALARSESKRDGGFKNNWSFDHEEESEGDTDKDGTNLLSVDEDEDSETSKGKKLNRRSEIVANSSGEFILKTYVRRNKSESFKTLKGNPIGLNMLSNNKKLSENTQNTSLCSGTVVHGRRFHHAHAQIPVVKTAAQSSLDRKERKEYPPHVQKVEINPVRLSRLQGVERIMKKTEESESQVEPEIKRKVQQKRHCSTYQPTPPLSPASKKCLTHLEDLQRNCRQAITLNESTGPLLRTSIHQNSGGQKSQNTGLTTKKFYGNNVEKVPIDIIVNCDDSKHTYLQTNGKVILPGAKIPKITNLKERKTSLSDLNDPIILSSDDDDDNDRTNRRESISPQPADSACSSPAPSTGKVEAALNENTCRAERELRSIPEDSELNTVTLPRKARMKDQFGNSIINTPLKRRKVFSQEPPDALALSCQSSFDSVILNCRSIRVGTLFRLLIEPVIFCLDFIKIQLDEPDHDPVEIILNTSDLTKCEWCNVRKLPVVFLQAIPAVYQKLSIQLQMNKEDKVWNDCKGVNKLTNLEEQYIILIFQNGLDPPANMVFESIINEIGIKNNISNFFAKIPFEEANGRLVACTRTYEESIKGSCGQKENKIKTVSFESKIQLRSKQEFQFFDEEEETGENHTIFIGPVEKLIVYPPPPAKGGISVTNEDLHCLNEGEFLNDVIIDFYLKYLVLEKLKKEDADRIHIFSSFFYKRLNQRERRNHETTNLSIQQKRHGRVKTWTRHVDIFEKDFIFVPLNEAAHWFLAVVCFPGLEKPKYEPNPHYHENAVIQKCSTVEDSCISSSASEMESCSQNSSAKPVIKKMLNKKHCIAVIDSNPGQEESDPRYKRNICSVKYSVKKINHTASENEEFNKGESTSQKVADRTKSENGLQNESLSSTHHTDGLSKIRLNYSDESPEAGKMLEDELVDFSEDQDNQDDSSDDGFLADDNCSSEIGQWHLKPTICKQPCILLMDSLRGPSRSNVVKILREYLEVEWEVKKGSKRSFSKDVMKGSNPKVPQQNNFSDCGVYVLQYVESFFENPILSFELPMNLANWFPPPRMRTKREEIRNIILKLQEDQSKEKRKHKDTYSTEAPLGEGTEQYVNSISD

[4] = NIH-3T3 fibroblast cytotoxicity, dose response, cytotoxicity control, cell-based, fluorescence, Alamar Blue, secondary assay (AID 2327); assay type: functional;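 further: NIH-3T3 mouse fibroblasts cultured with fluconazole at 8 µg/mL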
Protein skinhead-1 = target: T5, Protein skinhead-1 (Caenorhabditis elegans, UniProt P34707); assay type: functional
T5 sequence (P34707 whole entry): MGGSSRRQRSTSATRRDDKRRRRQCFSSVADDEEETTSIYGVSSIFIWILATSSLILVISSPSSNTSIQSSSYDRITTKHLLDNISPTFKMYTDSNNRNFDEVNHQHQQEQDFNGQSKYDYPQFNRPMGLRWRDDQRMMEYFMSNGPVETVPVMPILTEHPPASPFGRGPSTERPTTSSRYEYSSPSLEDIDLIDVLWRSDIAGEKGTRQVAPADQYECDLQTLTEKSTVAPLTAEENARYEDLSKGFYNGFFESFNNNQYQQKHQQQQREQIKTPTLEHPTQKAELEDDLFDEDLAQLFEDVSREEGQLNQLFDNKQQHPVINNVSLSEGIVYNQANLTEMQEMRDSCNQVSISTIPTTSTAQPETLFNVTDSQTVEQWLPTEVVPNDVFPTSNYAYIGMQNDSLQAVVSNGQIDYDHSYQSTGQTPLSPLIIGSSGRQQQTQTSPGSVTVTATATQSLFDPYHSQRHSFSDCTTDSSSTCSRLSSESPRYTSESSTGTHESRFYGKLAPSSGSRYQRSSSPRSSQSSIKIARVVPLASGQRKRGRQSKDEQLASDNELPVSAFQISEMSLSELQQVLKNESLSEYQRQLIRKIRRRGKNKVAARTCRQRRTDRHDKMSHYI

[5] = target: T6, Polyadenylate-binding protein 1 (Homo sapiens, UniProt P11940); assay: MLLE domain peptide-binding blockers, IC50 – biochemical, fluorescence polarization, FITC-PAM2 peptide, dose response (AID 602259); assay type: functional; conditions: read-out: IC50_Mean
T6 sequence (P11940 whole entry, the tested form may be a part): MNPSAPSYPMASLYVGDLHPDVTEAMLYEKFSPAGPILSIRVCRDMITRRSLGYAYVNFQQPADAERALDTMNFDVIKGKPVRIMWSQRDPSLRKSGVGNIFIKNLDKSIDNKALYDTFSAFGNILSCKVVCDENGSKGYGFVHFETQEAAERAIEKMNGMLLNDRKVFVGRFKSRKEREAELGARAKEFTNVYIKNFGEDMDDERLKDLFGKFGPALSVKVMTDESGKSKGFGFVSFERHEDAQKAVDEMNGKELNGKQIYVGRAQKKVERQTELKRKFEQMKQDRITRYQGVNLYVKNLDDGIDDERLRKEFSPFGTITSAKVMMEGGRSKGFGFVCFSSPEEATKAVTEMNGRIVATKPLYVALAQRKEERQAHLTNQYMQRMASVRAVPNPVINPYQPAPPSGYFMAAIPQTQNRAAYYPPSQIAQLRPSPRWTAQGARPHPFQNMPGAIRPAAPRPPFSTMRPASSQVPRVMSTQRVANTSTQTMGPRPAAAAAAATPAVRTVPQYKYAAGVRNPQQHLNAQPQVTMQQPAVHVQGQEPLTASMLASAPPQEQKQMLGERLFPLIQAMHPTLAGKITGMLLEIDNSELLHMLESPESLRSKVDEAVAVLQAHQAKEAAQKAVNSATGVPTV

[6] = target: T6, Polyadenylate-binding protein 1; assay: MLLE binding blockers, Cy5 peptide tracer – biochemical, fluorescence polarization, Cy5-PAM2 peptide, secondary, miRNA deadenylation inhibitor project, dose response (AID 602260); assay type: functional; conditions: read-out: IC50_Mean
[7] = Luminescence Cell-Based Dose Confirmation HTS to Identify Activators of 5'UTR Stem-Loop Driven Alpha-Synuclein mRNA Translation in H4 Neuroglioblastoma Cells. [Related pubchem assays: 1829 (Project Summary), 1814 (Primary HTS)]; assay type: functional
H4 = assay: Luminescence Cell-Based Dose Response HTS to Identify Activators of 5'UTR Stem-Loop Driven Prion Protein mRNA Translation in H4 Neuroglioblastoma Cells. [Related pubchem assays: 1829 (Project Summary), 1814 (Primary HTS)]; assay type: functional; conditions: Homo sapiens
[8] = Luminescence Cell-Based Dose Response HTS to Identify Activators of Luciferase Translation or Activity in H4 […] Cells. [Related pubchem assays: 1829 (Project Summary), 1814 (Primary HTS)]; assay type: functional
Streptokinase A = target: T7, Streptokinase A (Streptococcus pyogenes serotype M1, UniProt P10520); assay: viability-normalized secreted streptokinase activity reduction – plasminogen activation absorbance, OD405, dose response (AID 1914); assay type: functional, Streptococcus pyogenes M1 GAS;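 further: secreted streptokinase activity via plasminogen activation per viability signal from cell pellet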
T7 sequence (P10520 whole entry): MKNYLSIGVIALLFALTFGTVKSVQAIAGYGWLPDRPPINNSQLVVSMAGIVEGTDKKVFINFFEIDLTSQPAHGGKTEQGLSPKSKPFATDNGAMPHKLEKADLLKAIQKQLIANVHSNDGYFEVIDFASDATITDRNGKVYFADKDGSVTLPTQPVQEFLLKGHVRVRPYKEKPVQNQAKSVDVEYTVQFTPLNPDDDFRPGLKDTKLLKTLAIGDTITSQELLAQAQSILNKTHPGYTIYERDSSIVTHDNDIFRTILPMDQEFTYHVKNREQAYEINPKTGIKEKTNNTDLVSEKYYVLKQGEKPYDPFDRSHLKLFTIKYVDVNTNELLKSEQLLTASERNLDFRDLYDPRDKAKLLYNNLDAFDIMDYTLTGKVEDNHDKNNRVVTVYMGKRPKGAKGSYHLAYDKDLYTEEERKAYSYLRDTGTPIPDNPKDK

[9] = system: Streptococcus sp. 'group A'; assay: Streptococcus pyogenes SK(-)GAS viability under kanamycin – luminescence, BacTiterGlo, confirmation, counter-screen for streptokinase expression inhibitor project, dose response (AID 1900); assay type: functional, organism-based
Streptococcus = assay: GAS UMAA2166 growth inhibition – luminescence, BacTiterGlo, counter-screen for streptokinase expression inhibitor project, dose response (AID 1915); assay type: functional, organism-based;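 further: potency for reduction of bacterial viability or growth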
Cytochrome P450 3A4 = Cytochrome P450 3A4 (Homo sapiens, UniProt P08684);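 further: CYP3A4 tested as one member of a cytochrome P450 panel screen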
Cytochrome P450 3A4, sequence (P08684 whole entry): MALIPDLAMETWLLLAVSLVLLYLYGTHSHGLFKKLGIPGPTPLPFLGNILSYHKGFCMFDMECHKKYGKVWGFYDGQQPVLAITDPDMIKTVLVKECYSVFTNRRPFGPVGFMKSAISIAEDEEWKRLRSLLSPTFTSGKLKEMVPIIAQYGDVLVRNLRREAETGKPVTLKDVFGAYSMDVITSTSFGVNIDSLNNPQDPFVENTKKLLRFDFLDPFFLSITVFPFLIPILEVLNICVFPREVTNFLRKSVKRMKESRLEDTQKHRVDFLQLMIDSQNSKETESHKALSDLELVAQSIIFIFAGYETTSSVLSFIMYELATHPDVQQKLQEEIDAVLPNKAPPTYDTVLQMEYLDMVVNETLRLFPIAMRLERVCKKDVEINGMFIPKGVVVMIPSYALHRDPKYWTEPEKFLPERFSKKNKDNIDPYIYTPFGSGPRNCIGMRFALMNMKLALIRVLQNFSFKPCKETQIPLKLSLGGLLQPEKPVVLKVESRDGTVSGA

Cytochrome P450 2D6 = Cytochrome P450 2D6 (Homo sapiens, UniProt P10635);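 further: CYP2D6 member of a cytochrome P450 panel assay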
Cytochrome P450 2D6, sequence (P10635 whole entry): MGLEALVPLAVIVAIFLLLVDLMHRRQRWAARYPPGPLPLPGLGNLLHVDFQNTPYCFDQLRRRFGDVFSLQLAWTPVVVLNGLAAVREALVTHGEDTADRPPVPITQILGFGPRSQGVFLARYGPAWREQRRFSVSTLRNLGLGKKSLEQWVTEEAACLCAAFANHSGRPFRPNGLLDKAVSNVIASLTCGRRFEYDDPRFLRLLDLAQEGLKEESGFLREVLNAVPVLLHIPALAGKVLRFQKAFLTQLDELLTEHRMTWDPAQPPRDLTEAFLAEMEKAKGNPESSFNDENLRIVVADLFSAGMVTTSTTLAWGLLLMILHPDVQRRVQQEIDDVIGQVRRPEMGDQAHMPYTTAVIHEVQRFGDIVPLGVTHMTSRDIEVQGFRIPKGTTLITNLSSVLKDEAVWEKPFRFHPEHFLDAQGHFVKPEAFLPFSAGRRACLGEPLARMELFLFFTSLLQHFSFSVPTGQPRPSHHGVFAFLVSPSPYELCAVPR

BJ [10] = assay: BJ-TERT fibroblast viability loss – cell-based, RAS-independent, luminescence, dose response (AID 1933); assay type: functional; conditions: Homo sapiens
[11] = DRD fibroblast viability loss – cell-based, non-viral oncogenic, luminescence, dose response (AID 1934); assay type: functional; conditions: Homo sapiens
BJ [12] = assay: BJ-TERT-LT-ST fibroblast viability loss – cell-based, RAS-independent, luminescence, dose response (AID 1935); assay type: functional; conditions: Homo sapiens;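 further: BJ fibroblasts immortalized with TERT plus LT and ST oncogenes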
BJ [13] = assay: cells; assay type: functional, cell-based, Homo sapiens; conditions: Homo sapiens, BJ

| SMILES | IC50 [1] | IC50 [2] | IC50 (Caspase-3) | IC50 [3] | IC50 [5] | IC50 [6] | further results |
| --- | --- | --- | --- | --- | --- | --- | --- |
| O=C(Nc1nc(=O)c2ccccc2s1)c1ccccc1 | > 100 µM (inactive) | 6.3 µM (active) | 4.38 µM (active) | 60.6 µM (active) |  |  | EC50 [4]: 63.1 µM (active) |
| c1ccc2nc(-c3ccc(-n4ccnc4)cc3)ccc2c1 | 13.1 µM (active) | 5.47 µM (active) | 8.83 µM (active) | 10.8 µM (active) |  |  | IC50 (Protein skinhead-1): 7.87 µM (active) |
| CCN(CC)S(=O)(=O)c1ccc2c(c1)nc(SCn1nnc3ccccc3c1=O)n2CC |  |  |  |  | > 66 µM (inactive) | > 66 µM (inactive) |  |
| Cc1nc(NC(=S)NC(=O)c2ccccc2)sc1C(=O)N(C)C |  |  |  |  | > 66 µM (inactive) | > 66 µM (inactive) |  |
| O=C(NN=Cc1sc(=O)[n-]c1-[n+]1ccccc1)c1ccccc1O |  |  |  |  | 35.2 µM (inactive) | > 66 µM (inactive) |  |
| COc1cccc(C(=O)OCC(=O)c2ccc(Br)s2)c1 | 21.6 µM (active) | 10.3 µM (active) | 26.8 µM (active) | 14.6 µM (active) |  |  |  |
| CCSc1nsc(NC(=O)Nc2ccccc2F)n1 | 6.84 µM (active) | 5.95 µM (active) | 29 µM (active) | > 100 µM (inactive) |  |  | EC50 [7]: 0.283 µM (active); EC50 (H4): 16.1 µM (inconclusive); EC50 [8]: 20.4 µM (active) |
| N=C1/C(=C/c2cccs2)C(=O)N=C2SN=C(SCc3ccccc3)N12 | 32.6 µM (active) | 27.7 µM (active) | 50.3 µM (active) | 11.1 µM (active) |  |  | EC50 (Streptokinase A): 5.78 µM (active); EC50 [9]: 3.65 µM (active); EC50 (Streptococcus): 30 µM (active); AC50 (Cytochrome P450 3A4): 14.1 µM (inconclusive); AC50 (Cytochrome P450 2D6): 25.1 µM (inconclusive) |
| O=C(Nc1ccc(Cl)cc1)Nc1nccs1 | 15.5 µM (active) | 7.33 µM (active) | 21.7 µM (active) | 14.6 µM (active) |  |  | AC50 (Cytochrome P450 2D6): 31.6 µM (inconclusive) |
| CCOC(=O)c1ccc(Nc2sc(C(=O)c3cccc([N+](=O)[O-])c3)c(N)c2C#N)cc1 |  |  |  |  |  |  | EC50 (BJ [10]): > 150 µM (not active); EC50 [11]: 136 µM (inconclusive); EC50 (BJ [12]): 97.4 µM (active); EC50 (BJ [13]): 92.4 µM (inconclusive) |
| O=CNc1ccc2c3c(cccc13)-c1ccccc1-2 |  |  |  |  | 37.1 µM (inactive) | 33.1 µM (inactive) |  |
| CCCc1nc2ccc(Cl)cn2c1Cc1ccsc1 |  |  |  |  | 59.3 µM (inactive) | 51.2 µM (inactive) |  |
| Nc1[nH]n(-c2ccccc2)c(=O)c1N=Nc1ccccc1 | > 100 µM (inactive) | 4.47 µM (active) | 20.2 µM (active) | > 100 µM (inactive) |  |  |  |
